This is an account of results in patent US20230374007A1, “COMPOUNDS AND THEIR USE IN TREATING CANCER” (AstraZeneca AB, priority 2020, published 2023).

Test [1] has as its target T1, human BRD4 (amino acid residues 42 to 169) (Homo sapiens, UniProt O60885).
T1 construct: encoding amino acid residues 42 to 169 (Uniprot 060885) of human BRD4; hexahistidine (N, cleaved yes); TEV cleavage site (N, cleaved yes); made in house; host or cells: E. coli BL21 Gold (DE3)
The test is described as follows: BRD4 surface plasmon resonance (SPR) assay. Conditions: biotinylated BRD4, 25° C., read-out: BRD4 Affinity Kd. Type of test: binding. (In general: SPR reads the build-up and loss of mass on a sensor chip optically.)

Test [2] addresses T2, BRD4 tagged to a HiBiT tag in HEK 293 cells (Homo sapiens, UniProt O60885).
T2 construct: at the N-terminus of endogenous BRD4; endogenous in cells
In words: HiBiT degradation assay. The test is classed as cell-based. Conditions: for DC50: BRD4 degradation, HiBiT-BRD4 HEK 293 cells, 18 h; for Dmax: HEK293. The protocol:
Determination of PROTAC potency was determined in HEK 293 cells expressing BRD4 tagged to a HiBiT tag. To generate those cells, HiBiT tag (aminoacid sequence: […]) was inserted, via CRISPR CAS9 knock-in, at the N-terminus of endogenous BRD4.
To measure success of knock-in the cells were then tested for their level of luminescence. Finally a stable pool was generated from them. In a typical experiment, 14×10^3 cells are seed in the wells of a 384 well plate (white flat bottom, tissue culture ready, corning 781080) in 40 μL of culture medium (DMEM, 10% FBS and 2 mM Gln). Immediately after seeding, PROTAC compounds, diluted in DMSO solution, are added to the wells via ECHO 555 acoustic dispenser at the appropriate concentration. DMSO is used as a not active control and as normalization. In each plate a series of compounds of known DC50 are included as quality control. The 384 well plate is placed in an incubator at 37° C. and 5% CO2 for 18 h. At the end of the incubation period plates are removed from the incubator and the medium is replaced with 10 μL of PBS and 10 μL of complete NanoGlo HiBiT solution (Promega N3040, consisting of 9.7 μL of Lysis buffer, with 0.1 μL of LgBiT protein and 0.2 μL of nanoluciferase substrate). After 15 minutes of incubation at r.t., the luciferase activity of the plate is recorded in a luminometer. dBET6 (MCE® Cat. No.: HY-112588) was used for normalization when calculating Dmax.

With `Cc1sc2c(c1C)C(c1ccc(Cl)cc1)=N[C@@H](CC(=O)NCCNC(=O)Cc1c[nH]c3cc(N4CCC(=O)NC4=O)ccc13)c1nnc(C)n1-2` [Example 127, (S)-2-(4-(4-Chlorophenyl)-2,3,9-trimethyl-6H-thieno[3,2-f][1,2,4]triazolo[4,3-a][1,4]-diazepin-6-yl)-N-(2-(2-(6-(2,4-dioxotetrahydropyrimidin-1 (2H)-yl)-1H-indol-3-yl)acetamido)ethyl)-acetamide], the Kd in test [1] was 13 nM. Also, in test [2], it took 198 nM to reach half-maximal degradation (DC50) and the Dmax was found to be 97.2%.

As for `Cc1sc2c(c1C)C(c1ccc(Cl)cc1)=N[C@@H](CC(=O)NCCOCCOCCOCCOCCOCCOCCNC(=O)Cc1c[nH]c3cc(N4CCC(=O)NC4=O)ccc13)c1nnc(C)n1-2` [Example 129, (S)-2-(4-(4-Chlorophenyl)-2,3,9-trimethyl-6H-thieno[3,2-f][1,2,4]triazolo[4,3-a][1,4]-diazepin-6-yl)-N-(1-(6-(2,4-dioxotetrahydropyrimidin-1 (2H)-yl)-1H-indol-3-yl)-2-oxo-6,9,12,15,18,21-hexaoxa-3-azatricosan-23-yl)acetamide], the Kd in test [1] is 30 nM. In addition, in test [2], half-maximal degradation (DC50) was put at 970 nM and the Dmax is 111%.

Consider `Cc1sc2c(c1C)C(c1ccc(Cl)cc1)=N[C@@H](CC(=O)NCCOCCOCCNC(=O)Cc1c[nH]c3cc(N4CCC(=O)NC4=O)ccc13)c1nnc(C)n1-2` [Example 128, (S)-2-(4-(4-Chlorophenyl)-2,3,9-trimethyl-6H-thieno[3,2-f][1,2,4]triazolo[4,3-a][1,4]-diazepin-6-yl)-N-(2-(2-(2-(2-(6-(2,4-dioxotetrahydropyrimidin-1 (2H)-yl)-1H-indol-3-yl)acetamido)-ethoxy)ethoxy)ethyl)acetamide], for which the Kd in test [1] turned out to be 19 nM. Further, in test [2], the DC50 is 1140 nM and the Dmax stood at 73.1%.

One may read the Kd as the free concentration of one partner at which half of the binding sites on the other are occupied at equilibrium, for simple one-to-one binding. What is called DC50 is the concentration giving 50% degradation. In general, Dmax refers to the greatest extent of degradation seen.
